Results taken from US10093627B2, “Tetrahydroquinoline derivatives and their use as Epac inhibitors” (Institut National de la Sante et de la Recherche Medicale …, priority 2012, dated 2018).

Target: T1, Epac1 (Homo sapiens, UniProt O95398)
T1 construct: Recombinant human Epac1 (residues 149-881), deleted of its Dishevelled, Egl-10, and Pleckstrin (DEP) domain; made in house
T1 sequence (O95398 149-881 isoform O95398-3): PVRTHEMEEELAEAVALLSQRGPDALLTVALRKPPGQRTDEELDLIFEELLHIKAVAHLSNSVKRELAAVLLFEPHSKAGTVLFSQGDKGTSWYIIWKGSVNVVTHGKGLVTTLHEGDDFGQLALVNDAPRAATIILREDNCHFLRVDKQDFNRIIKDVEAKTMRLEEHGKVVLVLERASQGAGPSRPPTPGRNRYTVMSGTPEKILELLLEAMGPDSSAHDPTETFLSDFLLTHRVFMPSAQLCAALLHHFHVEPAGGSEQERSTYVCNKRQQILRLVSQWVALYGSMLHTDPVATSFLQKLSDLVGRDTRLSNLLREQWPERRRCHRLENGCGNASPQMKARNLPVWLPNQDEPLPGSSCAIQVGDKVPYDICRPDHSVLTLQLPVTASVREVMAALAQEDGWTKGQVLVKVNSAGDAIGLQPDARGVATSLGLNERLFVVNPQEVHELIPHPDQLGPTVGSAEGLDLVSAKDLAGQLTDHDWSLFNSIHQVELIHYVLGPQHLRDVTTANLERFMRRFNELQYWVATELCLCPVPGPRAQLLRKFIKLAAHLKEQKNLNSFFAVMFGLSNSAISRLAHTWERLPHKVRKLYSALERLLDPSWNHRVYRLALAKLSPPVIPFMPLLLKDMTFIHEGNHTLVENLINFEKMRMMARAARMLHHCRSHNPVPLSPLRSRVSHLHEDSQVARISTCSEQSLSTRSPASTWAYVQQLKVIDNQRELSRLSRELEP
Experiment: Epac1 nucleotide exchange activity, multipoint (time-course) method, bGDP-loaded GST-Rap1A
Type: biochemical
Settings: 20 μM CE3F4, single dose; 2 μM compound 007; FIG. 1
Method: Epac1 nucleotide exchange activity was measured: • in the absence of compound 007, • or in the presence of 2 μM of compound 007, either alone or with 25 μM of compound 009, • or with 20 μM of CE3F4.
Variations of RFU (Relative Fluorescence Units) were studied as a function of time and fitted to single exponentials. Reported values are mean±SEM (n=3). (see Materiel and Methods).
Concerning FIG. 1, a “multipoint” (time-course) method was used. All components except the agonist (007) were mixed in a well and the exchange activity of Epac1 was initiated by injection of the agonist. GST-Rapt was preloaded with a fluorescent derivative of GDP, and the Epac1-catalyzed nucleotide exchange was measured using a large excess of non-fluorescent GDP, by taking advantage of the spectroscopic difference between free and Rap1-bound fluorescently labeled GDP. The principle of the method is similar to that reported in particular by Van den Berghe et al. (1997; Oncogene 15, 845), except that Bodipy FL-labeled GDP (bGDP) was used here, rather than 2′,3′-bis(O)—N-methylanthraniloyl-GDP (mant-GDP). […]

CC1CCc2c(cc(Br)c(F)c2Br)N1C=O (racemic) [CE3F4]
Inhibition of the exchange reaction induced by Epac1 plus 007: inhibited the exchange reaction
